Entries after “also recorded” stand apart in the source; their conditions may differ.

In one experiment the test system is MKN-45 cells. The experiment in a line: Cell proliferation assay, MKN-45. The experiment is classed as cell-based, Human. Particulars: Crizotinib 40 nM, positive control; 4 days. As for the experimental part:
(§1) Human gastric cancer cell line MKN-45 cells were from the Chinese Academy of Medical Sciences, Beijing, China. Human gastric cancer cell line MKN-28 cells, the human glioma cell line U87 cells, and MDCK cells were obtained from the American Type Culture Collection (ATCC). The MKN-45 and MKN-28 cells were grown under a humidified atmosphere of 5% CO2 at 37 °C in RPMI 1640 medium (Biological Industries, Israel), supplemented with 10% fetal bovine serum (FBS, Biological Industries, Israel), 2 mmol/L L-glutamine (Gibco, Life Technologies, Grand Island, NY, USA), 100 U/mL penicillin, and 100 μg/mL streptomycin (Invitrogen, Carlsbad, CA, USA). MDCK and U87 cells were cultured under a humidified atmosphere of 5% CO2 at 37 °C in Dulbecco’s modified Eagle’s medium (DMEM) (Gibco, Life Technologies, Grand Island, NY, USA), supplemented with 10% FBS, 2 mmol/L L-glutamine (Gibco, Life Technologies, Grand Island, NY, USA), 100 U/mL penicillin, and 100 μg/mL streptomycin (Invitrogen, Carlsbad, CA, USA).
(§2) As described in the literature, MKN-45, MKN-28, and U87 cells were seeded into 48-well culture plates (6500 cells/well) and cultured overnight. […] After 4 days, the cells were trypsinized and counted by a cell counter. […]

For the next experiment, the system named is U87 cells. The experiment in a line: Cell proliferation assay, U87 (HGF-stimulated). In kind it is cell-based, human. Particulars: Crizotinib 40 nM, positive control; 20 ng/mL HGF; 4 days. As for the experimental part:
as §1, §2

Another experiment concerns MKN-28 cells. Kind of experiment: Cell proliferation assay, MKN-28. The experiment is classed as cell-based, Human. Particulars: Crizotinib 40 nM, positive control; 4 days. As for the experimental part:
as §1, §2

Experiment [1] concerns c-Met-positive MKN-45 cells. The experiment in a line: Flow cytometry binding to c-Met-positive MKN-45 cells. Particulars: 1 μM, 1 h, room temperature. The arrangement: species or system Human. As for the experimental part:
as §1
(§3) A flow cytometry assay was used to evaluate the conjugation and affinity of the newly designed peptides CM 7, CM 14, or FITC alone to c-Met-positive MKN-45 cells and c-Met-negative MKN-28 cells. Briefly, MKN-45 and MKN-28 cells were detached by 0.25% trypsin and the final cell concentration was adjusted to 3 × 10^6 cells/mL. […]
A general note: Flow cytometry measures light scatter and fluorescence of single cells or particles in a stream.

Experiment [2] deals with c-Met-negative MKN-28 cells. Kind of experiment: Flow cytometry binding to c-Met-negative MKN-28 cells. The arrangement: species or system Human. As to conditions: 1 μM, 1 h, room temperature. As for the experimental part:
as §1, §3

Experiment [3] deals with c-Met-positive MKN-45 cells. Kind of experiment: Confocal microscope imaging of binding to MKN-45 cells. The arrangement: species or system Human. Particulars: MKN-45 cells (fixed); 1 μM, 1 h, room temperature. As for the experimental part:
as §1
(§4) MKN-45 and MKN-28 cells were plated separately in a glass-bottom cell culture dish (NEST) with serum-free media overnight. The next day, cells were fixed with 4% paraformaldehyde for 20 min at room temperature. […]

Experiment [4] relates to c-Met-negative MKN-28 cells. The experiment in a line: Confocal microscope imaging of binding to MKN-28 cells. More on the design: species or system Human. As to conditions: MKN-28 cells (fixed); 1 μM, 1 h, room temperature. As for the experimental part: as §1, §4

In the case of `C[C@@H](Oc1cc(-c2cnn(C3CCNCC3)c2)cnc1N)c1c(Cl)ccc(F)c1Cl` [Crizotinib, reference compound], the “Inhibition of cell proliferation” value in the experiment with MKN-45 cells, in the experiment with U87 cells and in the experiment on MKN-28 cells was “significantly inhibit” each time.

Turning to `O=C1OC2(c3ccc(O)cc3Oc3cc(O)ccc32)c2ccc(N=C=S)cc21` [FITC, Fluorescein isothiocyanate isomer], the “Binding by flow cytometry (in words)” value in experiment [1] and in experiment [2] was “hardly combined” each time. For the same molecule, the “Binding / fluorescent signal by confocal imaging” value is “could not bind to MKN-45 or MKN-28 cells” in experiment [3] and “could not bind to MKN-45 or MKN-28 cells; also recorded: did not show any fluorescent signals” in experiment [4].

For the origin of these results see PMC7038139, “Novel Peptide CM 7 Targeted c-Met with Antitumor Activity” (Molecules, 2020).
